From US11382878B2, “Use of metformin and sodium butyrate for treating conditions induced by chronic inflammation” (Johnpro Biotech Inc., priority 2017, dated 2022)

Assays:
[1] = tested on: radiation induced inflammation of the rectum; assay: Radiation induced rectum inflammation in mice (gross rectum observation, H&E staining)
[2] = tested on: radiation proctitis; assay: Clinical case: radiation proctitis patient treated by enema; assay type: in vivo, human; conditions: one patient, grade 3 radiation proctitis, sulfasalazine and steroids enema treatment for 6 months

C[C@]12CCC(=O)C=C1CC[C@@H]1[C@@H]2C(=O)C[C@@]2(C)[C@H]1CC[C@]2(O)C(=O)CO [cortisone]
stool in the rectum (rectum mucosa function of absorbing water) ([1]; 30 Gy radiation on Day 1, rectal enema once daily Day 8 to Day 14, observed Day 14 (FIG. 4A, 4B)): a significant amount of loose stool was seen in the rectum
crypt tissue / damage to the intestine mucosa (H&E stain) ([1]; 30 Gy radiation on Day 1, rectal enema once daily Day 8 to Day 14, rectum samples Day 14 (FIG. 5A)): the crypt tissue was not observed

O=C(O)c1cc(/N=N/c2ccc(S(=O)(=O)Nc3ccccn3)cc2)ccc1O [sulfasalazine]
response of symptoms to prior treatment [2]: refractory
